Test results taken from US10913711B2, “Potent and selective inhibitors of monoamine transporters; method of making; and use thereof” (priority 2013, dated 2021).
Where two headings read alike, the source gives them in different places.

Assays:
[1] = Phase II glucuronidation stability in mouse liver microsomes (UDPGA); type: in vitro ADME
Procedure: Phase I and phase II metabolic stability assay for was conducted in mouse liver microsomes. For phase I metabolism, the reaction was carried out with 100 mM potassium phosphate buffer, pH 7.4, in the presence of NADPH regenerating system (1.3 mM NADPH, 3.3 mM glucose 6-phosphate, 3.3 mM MgCl2, 0.4 U/mL glucose-6-phosphate dehydrogenase, 50 μM sodium citrate). Reactions in duplicate were initiated by addition of the liver microsomes to the incubation mixture (compound final concentration was 10 μM; 0.5 mg/mL microsomes). For phase II glucuronidation reaction compound was added to TRIS-HCl buffer (50 mM, pH 7.5) with microsomes (0.5 mg/mL), along with MgCl2 (8 mM), and alamethicin (25 μg/mL) and pre-incubated at 37° C. The reaction was initiated (in duplicate) with UDPGA at a final concentration of 2 mM. Negative controls in the absence NADPH and UDPGA were carried for both phase I and phase II metabolism respectively, to determine the specific cofactor free degradation. […] Compound disappearance was monitored over time using a liquid chromatography and tandem mass spectrometry (LC/MS/MS) method.
Compounds were separated on an Agilent 1290 UPLC system with a c18 column using a gradient run of 55:45-5:95 water:acetonitrile over 3.2 minutes and detected on an Agilent 6520 QTOF mass spectrometer.

[2] = biological target: human DAT wild type (Homo sapiens (Human), UniProt Q01959); experiment: [3H]DA uptake inhibition in intact COS7 cells, hDAT WT; type: cell-based; settings: [3H]DA uptake inhibition potency, read-out: hDAT WT Ki [S.E. interval]
[3] = biological target: human SERT wild type (Homo sapiens (Human), UniProt P31645); type: cell-based; settings: for Ki: read-out: hSERT WT Ki [S.E. interval]
Excerpt: (§1) Molecular Pharmacology Site-directed mutagenesis: Synthetic cDNA encoding the human DAT (synDAT) were subcloned into pcDNA3 (Invitrogen, Carlsbad, Calif.). cDNA encoding the human SERT (hSERT) was cloned into the pUbilz expression vector. Mutations herein were generated by the QuickChange method (adapted from Stratagene, La Jolla, Calif.) and confirmed by restriction enzyme mapping and DNA sequencing. Positive clones were amplified by transformation into XL1 blue competent cells (Stratagene) and positive colony picked and grown in LB media over night at 37° C. in an orbital incubator (Infors) @ 200 rpm. Plasmids were harvested using the maxi prep kit provided by Qiagen according to the manufacturer's manual.
(§2) Uptake assays were performed essentially as previously described to Cha, J. H.; Zou, M. F.; Adkins, E. M.; Rasmussen, S. G.; Loland, C. J.; Schoenenberger, B.; Gether, U.; Newman, A. H. Rhodamine-Labeled 2beta-Carbomethoxy-3beta-(3,4-Dichlorophenyl)Tropane Analogues as High-Affinity Fluorescent Probes for the Dopamine Transporter. […] Transiently transfected COS-7 cells were plated in 12-well (3*10^5 cells/well) or 24-well dishes (10^5 cells/well) coated with poly-ornithine to achieve an uptake level of no more than 10% of total added radioligand. The uptake assays were carried out 2 days after transfection. Prior to the experiment, the cells were washed once in 500 μl of uptake buffer buffer (25 mM 4-(2-hydroxyethyl)-1-piperazineethanesulfonic acid (HEPES), 130 mM NaCl, 5.4 mM KCl, 1.2 mM CaCl2, 1.2 mM MgSO4, 1 mM L-ascorbic acid, 5 mM D-glucose, and 1 μM of the catechol-O-methyltransferase inhibitor Ro 41-0960 (Sigma), pH 7.4) at room temperature (RT). […] All samples were transferred to 24-well counting plates and 500 μL (or 600 μL) of Opti-phase Hi Safe 3 scintillation fluid (Perkin Elmer) was added followed by counting of the plates in a Wallac Tri-Lux β-scintillation counter (Perkin Elmer). Nonspecific uptake was determined in the presence of 5 μM paroxetine for hSERT and 50 μM nomifensine for hDAT expressing cells. All determinations were performed in triplicate.

[4] = biological target: human SERT T497A mutant (Homo sapiens (Human), UniProt P31645, T497A); type: cell-based; settings: for Ki: read-out: hSERT T497A Ki [S.E. interval]
Excerpt: as §1, §2

[5] = biological target: human DAT A480T mutant (Homo sapiens (Human), UniProt Q01959, A480T); experiment: [3H]DA uptake inhibition in intact COS7 cells, hDAT A480T; settings: for Ki: read-out: hDAT A480T Ki [S.E. interval], [3H]DA uptake inhibition potency; for affinity at DAT A480T compared to DAT WT: uptake inhibition
human DAT A480T mutant, sequence (Q01959 whole entry A480T): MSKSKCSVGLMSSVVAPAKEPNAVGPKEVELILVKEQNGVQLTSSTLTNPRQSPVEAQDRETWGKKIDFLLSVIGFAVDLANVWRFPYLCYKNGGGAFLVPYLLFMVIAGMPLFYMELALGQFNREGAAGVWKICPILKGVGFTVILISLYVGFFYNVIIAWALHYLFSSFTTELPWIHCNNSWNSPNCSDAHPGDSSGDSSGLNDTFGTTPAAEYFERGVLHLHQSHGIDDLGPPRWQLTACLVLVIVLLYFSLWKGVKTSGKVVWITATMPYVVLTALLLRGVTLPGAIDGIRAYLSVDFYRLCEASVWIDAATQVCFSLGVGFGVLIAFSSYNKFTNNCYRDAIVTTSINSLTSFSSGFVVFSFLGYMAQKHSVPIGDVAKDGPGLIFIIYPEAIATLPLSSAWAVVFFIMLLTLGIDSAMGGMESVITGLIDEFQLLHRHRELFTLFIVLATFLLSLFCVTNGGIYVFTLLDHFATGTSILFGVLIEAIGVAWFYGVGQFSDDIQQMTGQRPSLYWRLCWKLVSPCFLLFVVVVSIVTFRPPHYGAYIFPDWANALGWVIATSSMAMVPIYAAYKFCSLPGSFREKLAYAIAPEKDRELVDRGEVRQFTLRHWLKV

[6] = biological target: SERT (Rattus norvegicus (Rat), UniProt P31652); settings: 2i v. 2g (Table 1); 4c v. 4a (Table 2)
SERT, sequence (P31652 whole entry): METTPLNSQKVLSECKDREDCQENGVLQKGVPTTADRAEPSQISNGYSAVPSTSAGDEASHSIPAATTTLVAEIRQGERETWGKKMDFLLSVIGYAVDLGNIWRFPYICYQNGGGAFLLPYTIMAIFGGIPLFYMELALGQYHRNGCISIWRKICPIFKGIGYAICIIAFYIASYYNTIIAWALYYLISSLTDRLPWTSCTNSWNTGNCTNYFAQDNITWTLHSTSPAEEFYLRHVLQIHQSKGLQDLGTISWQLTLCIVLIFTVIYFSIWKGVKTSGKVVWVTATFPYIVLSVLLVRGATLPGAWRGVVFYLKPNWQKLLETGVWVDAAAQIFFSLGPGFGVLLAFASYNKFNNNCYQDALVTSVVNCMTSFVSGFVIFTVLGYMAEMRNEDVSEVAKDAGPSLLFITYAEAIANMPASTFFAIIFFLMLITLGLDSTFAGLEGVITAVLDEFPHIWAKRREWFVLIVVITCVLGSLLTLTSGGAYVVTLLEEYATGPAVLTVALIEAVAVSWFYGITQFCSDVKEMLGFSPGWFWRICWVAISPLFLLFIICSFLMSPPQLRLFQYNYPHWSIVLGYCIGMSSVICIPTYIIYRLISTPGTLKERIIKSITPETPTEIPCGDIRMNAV
Procedure: Brains from male Sprague-Dawley rats weighing 200-225 g (Taconic Labs, Germantown, N.Y.) were removed, midbrain dissected and rapidly frozen. […] Nonspecific binding was determined using 10 mM fluoxetine. […] The filters were washed twice with 3 mL cold buffer and transferred to scintillation vials. Beckman Ready Value (3.0 mL) was added and the vials were counted the next day using a Beckman 6000 liquid scintillation counter (Beckman Coulter Instruments, Fullerton, Calif.). […] Data were analyzed with GraphPad Prism software (San Diego, Calif.).

[7] = biological target: NET (Rattus norvegicus (Rat), UniProt Q9WTR4); experiment: Norepinephrine Transporter Binding Assay ([3H]Nisoxetine, rat frontal cortex membranes)
NET, sequence (Q9WTR4 entry or part of it): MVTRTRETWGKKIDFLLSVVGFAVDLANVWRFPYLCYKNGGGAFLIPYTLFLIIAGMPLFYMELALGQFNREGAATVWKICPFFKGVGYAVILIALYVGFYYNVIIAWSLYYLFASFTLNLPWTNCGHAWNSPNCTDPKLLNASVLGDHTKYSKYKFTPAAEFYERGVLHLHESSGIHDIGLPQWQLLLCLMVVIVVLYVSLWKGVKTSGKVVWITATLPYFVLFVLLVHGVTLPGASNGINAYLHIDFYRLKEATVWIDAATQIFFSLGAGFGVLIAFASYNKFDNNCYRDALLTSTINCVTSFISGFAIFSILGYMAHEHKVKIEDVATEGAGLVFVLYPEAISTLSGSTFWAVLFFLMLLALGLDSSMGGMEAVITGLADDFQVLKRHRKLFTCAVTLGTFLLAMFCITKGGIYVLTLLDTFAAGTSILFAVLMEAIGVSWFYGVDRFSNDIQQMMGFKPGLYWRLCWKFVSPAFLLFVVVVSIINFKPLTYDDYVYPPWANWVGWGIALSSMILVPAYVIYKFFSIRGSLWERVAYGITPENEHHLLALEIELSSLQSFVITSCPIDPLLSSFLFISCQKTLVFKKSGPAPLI
Procedure: Binding affinities of all compounds were evaluated at the DAT, SERT, and NET in rat brain membranes using previously described methods:
Norepinephrine Transporter Binding Assay. Brains from male Sprague-Dawley rats weighing 200-225 g (Taconic Labs, Germantown, N.Y.) were removed, frontal cortex dissected and rapidly frozen. Membranes were prepared by homogenizing tissues in 20 volumes (w/v) of 50 mM Tris containing 120 mM NaCl and 5 mM KCl, (pH 7.4 at 25° C.), using a Brinkman Polytron and centrifuged at 50,000×g for 10 min at 4° C. The resulting pellet was resuspended in buffer, recentrifuged and resuspended in buffer to a concentration of 80 mg/mL. Ligand binding experiments were conducted in assay tubes containing 0.5 mL buffer for 60 min at 0-4° C. […] Nonspecific binding was determined using 1 mM desipramine. Incubations were terminated by rapid filtration through Whatman GF/B filters, presoaked in 0.05% polyethylenimine, using a Brandel R48 filtering manifold (Brandel Instruments Gaithersburg, Md.). The filters were washed twice with 3 mL cold buffer and transferred to scintillation vials. Beckman Ready Value (3.0 mL) was added and the vials were counted using a Beckman 6000 liquid scintillation counter (Beckman Coulter Instruments, Fullerton, Calif.). […] All compounds were tested as racemic mixtures.

[8] = biological target: DAT (Rattus norvegicus (Rat), UniProt P23977); experiment: Dopamine Transporter Binding Assay ([3H]WIN 35428, rat striatal membranes)
DAT, sequence (P23977 whole entry): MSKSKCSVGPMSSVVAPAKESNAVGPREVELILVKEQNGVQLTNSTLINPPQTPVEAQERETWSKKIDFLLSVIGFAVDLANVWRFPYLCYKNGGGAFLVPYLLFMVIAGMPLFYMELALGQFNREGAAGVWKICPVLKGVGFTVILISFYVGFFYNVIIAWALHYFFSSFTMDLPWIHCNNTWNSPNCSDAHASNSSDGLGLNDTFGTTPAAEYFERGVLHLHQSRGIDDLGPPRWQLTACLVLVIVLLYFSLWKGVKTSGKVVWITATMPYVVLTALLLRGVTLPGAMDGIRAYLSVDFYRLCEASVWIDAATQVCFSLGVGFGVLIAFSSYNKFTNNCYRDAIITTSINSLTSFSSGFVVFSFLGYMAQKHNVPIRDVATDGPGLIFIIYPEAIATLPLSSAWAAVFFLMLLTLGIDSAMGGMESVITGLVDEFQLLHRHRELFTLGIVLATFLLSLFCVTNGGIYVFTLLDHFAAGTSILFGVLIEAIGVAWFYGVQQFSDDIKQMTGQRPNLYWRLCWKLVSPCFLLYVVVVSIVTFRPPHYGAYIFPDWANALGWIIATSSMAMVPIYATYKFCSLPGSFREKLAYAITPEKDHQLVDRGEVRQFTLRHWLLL

[9] = Brain concentrations in mice; settings: mouse brain; for IV brain Conc. ng/g ± SD: 10 mg/kg IV; for PO brain Conc. ng/g ± SD: 10 mg/kg PO
Procedure: Plasma was harvested from blood by centrifugation. Additionally at two selected time points (i.e. 30 min and 2 h) brains were collected following both oral and IV dosing. Samples were extracted from plasma by a single one-step protein precipitation method (as described in bioanalysis section below). For brain tissue, whole brains were weighed and homogenized in two times the volume of acetonitrile, followed by vortexing and centrifugation. Once extracted, the samples were analyzed via LC/MS/MS (as described in bioanalysis section below). Non-compartmental-analysis module in WinNonlin™ (version 5.3) was used to assess pharmacokinetic parameters including maximal concentration (Cmax), time to Cmax (Tmax), area under the curve (AUClast), area extrapolated to infinity (AUCO-∞), terminal disposition rate constant (ke), and terminal half-life (t½).
Briefly, plasma samples were thawed on ice prior to extraction. Samples (50 μL) were extracted in 300 μL acetonitrile containing 1000 nM losartan as internal standard. For brain, 50 μL of the supernatant from homogenized tissue was extracted with 100 μL acetonitrile containing 1000 nM losartan as internal standard. Extracts were centrifuged at 16000×g at 4° C. for 10 minutes. Supernatants were transferred to a new siliconized tube and dried under N2 at 45° C. for 30 min. Samples were reconstituted with 100 μL of 30% acetonitrile, vortexed and centrifuged. Supernatants (95 μL) were transferred to a 250 μL polypropylene autosampler vials sealed with a Teflon cap and a volume of 10 μL was injected onto the ultra-performance liquid chromatography (UPLC) instrument for quantitative analysis using a temperature-controlled autosampler operating at 10° C.
The instrument was controlled by the Xcalibur software 2.3 (Thermo Scientific). Samples were introduced to the interface through Turbo Ion Spray with the temperature setting at 350° C.
Chromatographic analysis was performed using an Accela™ ultra high-performance system consisting of an analytical pump, and an autosampler coupled with TSQ Vantage mass spectrometer (Thermo Fisher Scientific Inc., Waltham Mass.).

[10] = test system: ON(O)CCc1ccccc1; experiment: cells, lysate or membranes; settings: other: [3H]DA uptake, COS7 cells; pH 7.4; 37.0 °C
[11] = substrate: ON(O)CCc1ccccc1; experiment: [3H]DA uptake inhibition in intact COS7 cells, hDAT WT; type: cell-based, human; settings: other: [3H]DA uptake, pH 7.4, 37.0 °C

Molecule: Cc1cc(=O)oc2cc(O)ccc12 [4 Methyl Umbelliferone, 4-methylumbelliferone]
- Phase II, parent compound remaining ([1]; 0 min): 100%
- Phase II, parent compound remaining ([1]; 60 min): 3.10%

Molecule: CNC(=O)CSC(c1ccc(Cl)cc1)c1ccc(Cl)cc1 [Compound 2h, 2-((Bis(4-chlorophenyl)methyl)thio)-N-methylacetamide]
- Ki [2]: 3.7 µM
- Ki [3]: 8.3 µM
- Ki [4]: 27 µM
- affinity at SERT T497A compared to SERT WT ([4]; uptake inhibition, COS7 cells): significantly decreased
- Ki [5]: 2.3 µM
- affinity at DAT A480T compared to DAT WT [5]: essentially the same

Molecule: CNC(=O)CSC(c1ccc(Br)cc1)c1ccc(Br)cc1 [Compound 2i, 2-((Bis(4-bromophenyl)methyl)thio)-N-methylacetamide]
- increase in SERT affinity, halogen-substituted v. unsubstituted analog [6]: > 50 fold
- Ki [7]: 11.2 µM
- improvement in DAT affinity, halogen-substituted v. unsubstituted analog [8]: 6 fold

Molecule: NCCSC(c1ccccc1)c1ccccc1 [Compound 4a, 2-(benzhydrylthio)ethan-1-amine]
- Ki [2]: 0.39 µM
- Ki [7]: 0.982 ± 0.0433 µM
- Ki [3]: 0.69 µM
- Ki [4]: 0.63 µM
- affinity at SERT T497A compared to SERT WT ([4]; uptake inhibition, COS7 cells): remain unchanged
- Ki [5]: 0.72 µM
- affinity at DAT A480T compared to DAT WT [5]: remain unchanged

Molecule: NCCSC(c1ccc(Cl)cc1)c1ccc(Cl)cc1 [Compound 4b, 2-((bis(4-chlorophenyl)methyl)thio)ethan-1-amine]
- Ki [2]: 1.21 µM
- Ki [3]: 0.27 µM
- affinity at SERT T497A compared to SERT WT [4]: remain unchanged
- Ki [4]: 0.17 µM
- Ki [5]: 1.37 µM
- affinity at DAT A480T compared to DAT WT [5]: remain unchanged

Molecule: NCCSC(c1ccc(Br)cc1)c1ccc(Br)cc1 [Compound 4c, 2-((bis(4-bromophenyl)methyl)thio)ethan-1-amine]
- increase in SERT affinity, halogen-substituted v. unsubstituted analog [6]: 9 fold
- improvement in DAT affinity, halogen-substituted v. unsubstituted analog [8]: 3 fold

Molecule: Fc1ccc(C(SCCNCCCc2ccccc2)c2ccc(F)cc2)cc1 [Compound 4g, N-(2-((bis(4-fluorophenyl)methyl)thio)ethyl)-3-phenylpropan-1-amine]
- IV brain Conc. ng/g ± SD ([9]; 0.5 h): 4776 (1324) ng/g
- IV brain Conc. ng/g ± SD ([9]; 2 h): 14111 (8093) ng/g
- PO brain Conc. ng/g ± SD ([9]; 0.5 h): 369 (303) ng/g
- PO brain Conc. ng/g ± SD ([9]; 2 h): 223 (90) ng/g
- Ki [7]: 3.85 µM

Molecule: NCCc1c[nH]c2ccc(O)cc12 [Compound 5-HT, 5-hydroxytryptamine, reference compound]
- Km ([3]; read-out: hSERT WT KM): 0.52 µM
- Km ([4]; read-out: hSERT T497A KM): 1.09 µM

Molecule: [O-][S+](CCNCCCc1ccccc1)C(c1ccc(Br)cc1)c1ccc(Br)cc1 (stereo not shown) [Compound 5e, N-(2-((bis(4-bromophenyl)methyl)sulfinyl)ethyl)-3-phenylpropan-1-amine]
- Ki [7]: 7.58 µM
- selectivity among the monoamine transporters (in words) ([8]; DAT, SERT, NET binding, rat brain membranes): SERT-selective

Molecule: human DAT A480T mutant (Homo sapiens; A480T)
- Km [10]: 1,930 nM

B1: human DAT wild type (Homo sapiens) (protein)
chain: MSKSKCSVGLMSSVVAPAKEPNAVGPKEVELILVKEQNGVQLTSSTLTNPRQSPVEAQDRETWGKKIDFLLSVIGFAVDLANVWRFPYLCYKNGGGAFLVPYLLFMVIAGMPLFYMELALGQFNREGAAGVWKICPILKGVGFTVILISLYVGFFYNVIIAWALHYLFSSFTTELPWIHCNNSWNSPNCSDAHPGDSSGDSSGLNDTFGTTPAAEYFERGVLHLHQSHGIDDLGPPRWQLTACLVLVIVLLYFSLWKGVKTSGKVVWITATMPYVVLTALLLRGVTLPGAIDGIRAYLSVDFYRLCEASVWIDAATQVCFSLGVGFGVLIAFSSYNKFTNNCYRDAIVTTSINSLTSFSSGFVVFSFLGYMAQKHSVPIGDVAKDGPGLIFIIYPEAIATLPLSSAWAVVFFIMLLTLGIDSAMGGMESVITGLIDEFQLLHRHRELFTLFIVLATFLLSLFCVTNGGIYVFTLLDHFAAGTSILFGVLIEAIGVAWFYGVGQFSDDIQQMTGQRPSLYWRLCWKLVSPCFLLFVVVVSIVTFRPPHYGAYIFPDWANALGWVIATSSMAMVPIYAAYKFCSLPGSFREKLAYAIAPEKDRELVDRGEVRQFTLRHWLKV
- Km [11]: 1,160 nM
